According to patent US20140045807A2, “THE USE OF 3-METHOXY-PREGNENOLONE FOR THE PREPARATION OF A DRUG FOR TREATING A TRAUMATIC BRAIN INJURY” (priority 2004, published 2014):

Legend:
Androgen Receptor (AR) = Androgen Receptor (AR) (Rattus norvegicus, UniProt P15207); assay: Radioligand binding assay, AR; settings: MAP4343 10 μM; 1.5 nM [^3H] Mibolerone; Rat recombinant E. coli
Procedure: Binding affinity of 3-methoxy-PREG (MAP4343) for receptors of steroid hormones was evaluated using radioligand binding assays.

spinophilin = assay: Western blot of spinophilin in cortex and hippocampus after CCI; type: in vivo, rat; settings: 10 mg/kg or 20 mg/kg, first injection 2 h post-trauma, day 35, injured cortex and hippocampus and contralaterally
Procedure: FIG. 21: Spinophilin expression, 35 days after TBI, in the left-uninjured and right-injured hemispheres (A: cortex and B: hippocampus) of CCI-injured animals, receiving either vehicle (D0) or MAP4343 (D1: 10 mg/kg and D2: 20 mg/kg), 2 h after injury.
Samples were analyzed by Western-blot at day 35 post-trauma (D35) to evaluate the effects of MAP4343 on: MAP2 (the target of MAP4343 and a modulator of microtubule function), the post-synaptic markers PSD95 and spinophilin, the pre-synaptic marker synaptophysin, and the axonal growth/integrity marker GAP43.
Western blot was performed on cortex and hippocampus of TBI-injured animals receiving the first injection of MAP4343 (at 10 mg/kg or 20 mg/kg) or vehicle (sesame oil) 2 h after injury.
The expression level of various neuronal brain markers of plasticity was measured at day 35 post-trauma by western-blots in the cortex and hippocampus of left uninjured and right injured cerebral hemispheres of CCI traumatized animals receiving either vehicle (sesame oil, CCI-D0) or 3-methoxy-PREG (MAP4343) at 10 mg/kg (CCI-D1) or 20 mg/kg (CCI-D2), with first MAP4343 injection 2 h post-trauma.

PC12 cell line = assay: Cellular toxicity test; type: cell-based, rat; settings: concentrations as high as solubility limits (approximately 50 μM)
Procedure: Cellular toxicity tests are carried out routinely on the PC12 cell line.

[1] = tested on: α-tubulin forms (Tyr/Glu-Tub, Acet-Tub) in rat hippocampus; assay: Microtubule dynamics in rat hippocampus after single administration; type: in vivo; settings: 10 mg/kg subcutaneously, 3 h following injection
Source text: Mean±SEM, n=6 per group. **p<0.01, *[…] vs sesame oil.
The effects produced by neurosteroids were compared with those produced by acute administration of the antidepressant drug fluoxetine (selective serotonin reuptake inhibitor; SSRI).

CCI traumatized animals = assay: Water Exploration Test (WET) after Controlled Cortical Impact (CCI); type: in vivo, rat; design: key to Time spent in CZ, Conclusion vs. CCI-D0: ↓ ↓ ↓: decrease of analyzed variable with p < 0.001; ?: stability of analyzed variable; ↑: increase in analyzed variable with p < 0.05; key to Entry number in CZ, Conclusion vs. CCI-D0: ↓: decrease of analyzed variable with p < 0.05; ?: stability of analyzed variable; ↑ ↑: increase in analyzed variable with p < 0.01; settings: for Entry number in CZ, Mean / Time spent in CZ, Mean: C-D0 = 100
Procedure: Male Sprague-Dawley rats of […] are used. There were 12 animals per group for all in vivo experiments (WET, MRI) except for the CHI injury which requested 17 animals per group because of the post-trauma mortality rate. Each group was then split in two subgroups of 6 individuals for all post-mortem analysis (biochemical, histological and immunohistological analysis.
CCI was performed with an electromagnetic impact device as described (MyNeurolab, St. Louis, Mo.; Brody et al. 2007). Anesthesized rats were subjected to a single right lateral CCI, with the following parameters: impact centered 4.0 mm anterior to lambda and 4.5 mm […] of midline, within the craniotomy of the animal. The impact was set at a velocity of 4 m/s with a sustained depression of 200 ms, using a 5.0 mm tip.
The […] is a rat, the more time it will spend “floating” (null velocity) in the central zone (see Fares-2009).
More precisely, a circular tank (180 cm diameter, 60 cm high) is filled with water maintained at 27° C. to a depth of 40 cm. The water is made opaque by adding black gouache, allowing the VideoTrack system (ViewPoint) to detect the white-coloured rat. This tank is divided into 4 identical quadrants (6,358 cm2 each) using two 180 cm long opaque plastic separators. In each quadrant, one rat is introduced with its head facing the corner between the separator and the tank's wall. It is noteworthy to emphasize that 4 rats can be tested simultaneously using the 4 quadrants. Using the VideoTrack system, we draw two virtual areas: a large one delineates the whole quadrant in which the rat is placed, the so-called Full Quadrant (FQ) and a small one that delineates a central zone (CZ). The CZ, having the same shape as the FQ, measures 2,921 cm2, and is considered to be anxiogenic for animals. Thus, the distance, the number of entries, the time spent, and the velocity profile in the CZ are measured to assess anxiety-like behaviour. In addition, the total distance traveled in the FQ represents an indicator of motor activity. The duration of each trial is 5 minutes.
The effect of 3-methoxy-PREG (MAP4343) on anxiety induced by trauma was analyzed using the WET test.

[2] = Day 7, CCI-D1, 10 mg/kg from 24 hours post-trauma
[3] = Day 7, CCI-D2, 20 mg/kg from 24 hours post-trauma
[4] = Day 27, CCI-D1, 10 mg/kg from 24 hours post-trauma
[5] = Day 27, CCI-D2, 20 mg/kg from 24 hours post-trauma

Chain of Androgen Receptor (AR) (P15207 whole entry S389L): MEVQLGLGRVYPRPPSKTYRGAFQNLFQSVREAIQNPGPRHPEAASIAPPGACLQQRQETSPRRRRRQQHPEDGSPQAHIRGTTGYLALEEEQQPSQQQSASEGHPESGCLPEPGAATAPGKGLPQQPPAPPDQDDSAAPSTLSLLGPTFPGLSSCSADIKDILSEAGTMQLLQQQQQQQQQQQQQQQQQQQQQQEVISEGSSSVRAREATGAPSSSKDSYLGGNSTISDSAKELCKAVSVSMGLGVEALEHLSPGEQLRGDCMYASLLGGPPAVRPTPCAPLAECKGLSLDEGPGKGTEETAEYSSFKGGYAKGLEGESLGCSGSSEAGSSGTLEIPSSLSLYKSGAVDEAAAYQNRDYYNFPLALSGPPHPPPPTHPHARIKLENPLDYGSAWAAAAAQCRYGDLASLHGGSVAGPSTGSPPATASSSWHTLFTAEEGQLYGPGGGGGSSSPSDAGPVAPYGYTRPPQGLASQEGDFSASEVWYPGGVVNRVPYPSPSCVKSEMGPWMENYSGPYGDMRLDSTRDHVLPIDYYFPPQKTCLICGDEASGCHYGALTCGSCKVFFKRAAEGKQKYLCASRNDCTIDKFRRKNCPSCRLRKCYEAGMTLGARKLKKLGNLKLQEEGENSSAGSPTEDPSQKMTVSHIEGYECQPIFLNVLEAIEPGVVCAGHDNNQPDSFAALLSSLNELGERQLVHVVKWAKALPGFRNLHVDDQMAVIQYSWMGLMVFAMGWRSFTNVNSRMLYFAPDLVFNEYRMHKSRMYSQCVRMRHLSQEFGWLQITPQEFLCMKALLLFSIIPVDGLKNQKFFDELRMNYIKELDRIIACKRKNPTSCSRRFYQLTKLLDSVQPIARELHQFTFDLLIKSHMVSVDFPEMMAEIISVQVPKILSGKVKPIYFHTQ

CO[C@H]1CC[C@@]2(C)C(=CC[C@H]3[C@@H]4CC[C@H](C(C)=O)[C@@]4(C)CC[C@@H]32)C1 [3-methoxy-PREG, 3β-methoxy-pregna-5-ene-20-one]
% inhibition of specific binding (Androgen Receptor (AR)): < 25% | spinophilin expression (spinophilin): increase in spinophilin expression | cellular toxicity (PC12 cell line): do not demonstrate toxicity | Acet-Tub (marker of stable microtubules) [1]: significantly decreased | Tyr/Glu-Tub ratio (index of microtubule dynamics) [1]: significantly increased | Entry number in CZ, Mean (CCI traumatized animals; [2]): 64 | Time spent in CZ, Mean (CCI traumatized animals; [2]): 48 | Time spent in CZ, Conclusion vs. CCI-D0 (CCI traumatized animals; Day 7, CCI-D2, 20 mg/kg): ↑ | Entry number in CZ, Mean (CCI traumatized animals; [3]): 73 | Time spent in CZ, Mean (CCI traumatized animals; [3]): 66 | Entry number in CZ, Mean (CCI traumatized animals; [4]): 79 | Time spent in CZ, Mean (CCI traumatized animals; [4]): 86 | Entry number in CZ, Conclusion vs. CCI-D0 (CCI traumatized animals; Day 27, CCI-D2, 20 mg/kg): ↑ ↑ | Time spent in CZ, Conclusion vs. CCI-D0 (CCI traumatized animals; Day 27, CCI-D2, 20 mg/kg): ↑ | Entry number in CZ, Mean (CCI traumatized animals; [5]): 114 | Time spent in CZ, Mean (CCI traumatized animals; [5]): 95 | anxiety induced by CCI trauma (CCI traumatized animals; as early as day 7, in particular at 20 mg/kg (D2)): alleviated
